Data: patent publication US20030202935A1, “Composition and formulations and their use as nociceptic, anti-axniolytic and anabolic agents” (priority 2000, published 2003)

How the values were obtained:
Intracellular Adenosine = tested on: Intracellular Adenosine; design: species or system Fischer 344 rats; conditions: rat, in vivo, po
Procedure: Folinic acid (50 mg/kg) was administered intraperitoneally once daily for fourteen days. […] Hearts were removed from animals and flash frozen in liquid nitrogen within 10 seconds of death. Liver and lungs were removed en bloc and flash frozen within 30 seconds of death. Brain tissue was subsequently dissected.

[1] = cited from earlier work

Compound	adenosine levels in the brain (Intracellular Adenosine)	half life [1]
Nc1nc(=O)c2c([nH]1)NCC(CNc1ccc(C(=O)N[C@@H](CCC(=O)O)C(=O)O)cc1)N2C=O (mixture of isomers) [Folinic Acid (F.A.), folinic acid]	dramatic increase	
Nc1ncnc2c1ncn2[C@@H]1O[C@H](CO)[C@@H](O)[C@H]1O [adenosine]		about a second
